Values belong to the compound of their own block, whether it stands above or below them.
Assays:
[1] = tested on: optic nerve head astrocytes (ONHA); assay: ONHA cell viability after tBHP oxidative stress, MTT assay; conditions: 16 h, then tBHP 40 μM 6 h
Protocol: Cell viability was assessed using the MTT colorimetric assay.

[2] = molecular target: Sigma-1 Receptor (S1R) (Homo sapiens (Human), UniProt Q99720); assay: In-vitro binding assay, Sigma-1 receptor (Eurofins Panlabs); conditions: Cheng Prusoff equation
[3] = tested on: optic nerve head astrocytes (ONHA); assay: ONHA oxidative stress (ROS) after tBHP, DCF fluorescence; format: cell-based, rat; conditions: 0.05 μM alone, 16 h, then tBHP 80 μM 6 h
Protocol: CM-H2DCFDA is cleaved to form non-fluorescent H2DCF, which is then oxidized to form the fluorescent DCF. DCF levels are indicative of ROS. Cell viability was also assessed using the commonly used colorimetric MTT assay.

[4] = tested on: B104 neuroblastoma cells; conditions: in-situ ELISA; Geva et al. 2016; cited from earlier work
[5] = tested on: RGCs; conditions: two experimental glaucoma models, elevated IOP

Sequence of Sigma-1 Receptor (S1R) (Q99720 whole entry, species assumed): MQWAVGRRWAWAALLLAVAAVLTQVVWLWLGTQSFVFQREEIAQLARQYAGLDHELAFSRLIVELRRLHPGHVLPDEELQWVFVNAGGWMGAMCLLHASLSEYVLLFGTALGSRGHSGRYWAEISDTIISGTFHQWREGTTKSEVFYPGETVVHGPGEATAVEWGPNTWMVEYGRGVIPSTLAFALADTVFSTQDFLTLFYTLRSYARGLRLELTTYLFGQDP

SMILES: CCCN1CCC(O)(c2cccc(S(C)(=O)=O)c2)CC1 [Compound 1]
increase in cell viability ([1]; 0.01 μM alone): neither pridopidine (0.05 μM) nor compound 1 (0.01 μM) have any effect
S1R Ki [2]: high affinity
reduction of oxidative stress (DCF fluorescence) [3]: 5%

SMILES: CCCN1CCC(c2cccc(S(C)(=O)=O)c2)CC1 [Pridopidine, 4-(3-(Methylsulfonyl)phenyl)-1-propylpiperidine]
BDNF secretion in rat neuroblastoma cells [4]: dose dependent increase
reduction of oxidative stress (DCF fluorescence) [3]: 30%
effect on RGCs [5]: neuroprotective effect
relation of protective effect to IOP [5]: not mediated by lowering IOP

S1R Ki [2]: high affinity
SMILES: CCCN1CC[C@@H](c2cccc(S(C)(=O)=O)c2)[C@@H](O)C1 [Compound 4]
increase in cell viability ([1]; 0.1 μM alone): neither pridopidine (0.05 μM) nor compound 4 (0.1 μM) have any effect

From US20240261273A1 (PRILENIA NEUROTHERAPEUTICS LTD., priority 2021, published 2024)
